US8367116B2, “Buoyant polymer particles for delivery of therapeutic agents to the central nervous system” (Seacoast Neuroscience, Inc., priority 2002, dated 2013)

Tests used:
[1] = cited from earlier work
[2] = tested on: rat middle cerebral artery occlusion (MCAo) stroke model; assay: Rat MCAo stroke model, drugs delivered into the ventricle (CSF) by osmotic pump (FIG. 4, FIG. 5); type: in vivo, Sprague-Dawley rat; conditions: given within the CSF
Protocol: The parietal branch of the middle cerebral artery of the Sprague-Dawley rat is permanently occluded with a 10-0 nylon suture. The common carotid arteries are occluded temporarily for one hour. All drugs and vehicle are given beginning two hours post ischemia. Rats are sacrificed 24-hours later and the size of the infarct measured as a percent infarction of the total volume of the brain (mm^3) using imaging analysis. […], drugs are administered into the ventricle using an Alza osmotic pump (#20010) at a flow rate of 8 ul/hr over 24 hours.
Animals were treated with vehicle (n=23), Antioxidant (n=8), Prodrug (n=7) or an NMDA antagonist (n=7).

[3] = tested on: rats with unilateral cortical infarcts (stroke); conditions: cited from earlier work
[4] = tested on: corticospinal tract axons; assay: Severed corticospinal tract model, inosine infused into the motor cortex, axon tracing; type: in vivo, rats; conditions: after 14 days of treatment
From the text: In one model, one side of the corticospinal tract in rats is severed as it courses through the brainstem. Inosine is then infused directly into the motor cortex of the brain, the site of origin for those axons descending into the non-injured side of the corticospinal tract. After 14 days of treatment, newly grown axon branches are traced by injecting a dye into the treated nerve cells in the cortex. Animals are then sacrificed and the spinal cord examined for histology evidence of new axon growth. […] These new axonal branches then continued to descend down the injured side of the corticospinal tract, effectively replacing severed axons with new ones. […] The number of collateral (new) axons ranged up to 2,500 per treated animal, compared to 28-170 axons seen in control animals.

[5] = adult rats with unilateral cortical infarcts

Structure (SMILES) | citicholine dose taken up into brain tissue ([1]; administered i.v.) | citicholine dose penetrating into brain tissue ([1]; administered orally) | initial dose found in the brain ([1]; given through the blood stream) | dose response on infarct [2] | GAP-43 stained newly growing axons on the denervated side ([3]; FIG. 7 B, E, after stroke) | axons crossing from undamaged side of brain to denervated side of spinal cord ([3]; FIG. 7 D, after stroke) | new projections to denervated areas of midbrain and spinal cord [3, 5] | performance on behavioral measures [3, 5] | recovery of limb function ([3]; intravenous administration, same animal model) | collateral sprouting of axons from uninjured to injured side of corticospinal tract ([4]; almost all treated animals) | number of collateral (new) axons per treated animal ([4]; control animals 28-170 axons)
C[N+](C)(C)CCOP(=O)(O)OP(=O)([O-])OC[C@H]1O[C@@H](n2ccc(N)nc2=O)[C@H](O)[C@@H]1O [Citicholine, Cytidine-5′-diphosphocholine] | about 2% | about 0.5% | less than 1% | dose response effect | – | – | – | – | – | – | –
OC[C@H]1O[C@@H](n2cnc3c(O)ncnc32)[C@H](O)[C@@H]1O [Inosine] | – | – | – | – | many | causes many axons (red) to cross over | stimulated neurons on the undamaged side of the brain to extend new projections | improved performance | little or no significant recovery | extensive collateral sprouting of axons | up to 2,500
